Assay results as given in patent publication US5686486A, “4-hydroxy-benzopyran-2-ones and 4-hydroxy-cycloalkyl[b]pyran-2-ones useful to treat retroviral infections” (priority 1995, dated 1997).
Where “and” joins values, the source holds several entries; their conditions need not be identical. Equal entries are not always repeated. Where two headings read alike, the source gives them in different places.

Experiments:
HIV-1 protease [1] = target: T1, HIV-1 protease (Human immunodeficiency virus type 1 group M subtype B, UniProt P04585); test: biochemical; details: read-out: HIV-1 FITC KI
Method: Determination of Ki values utilizes the same materials and equipment employed for percent inhibition studies. Two-fold serial dilutions are made for a given inhibitor from 2, 3 or 4 starting concentrations with a total of 24, 36 or 48 individual inhibitor concentrations. These dilutions are performed utilizing the BioMek robotics system. The assay consists of 10 μL of 40 nM HIV-1 protease, 10 μL of the various inhibitor concentrations, and 20 μL of 200 μM substrate (40 μL total). The reaction is allowed to proceed for 90 min at room temperature, terminated with 40 μL of avidin beads and processed (supra vide). An inhibitor with a known Ki is run in parallel to verify the validity of the assay. The data is processed utilizing a computer program employing a nonlinear least square analysis of the data to generate the Ki values.

HIV-1 protease [2] = target: T1, HIV-1 protease; test: biochemical
In short: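 Percent inhibition derived from fluorescent cleavage product separated by filtration after streptavidin-bead capture of intact biotin/FITC substrate. Reaction: enzyme (10 μl, 0.1 μM stock) with substrate (20 μl, 0.2 μM stock) and compound, 1 h at room temperature in dark, pH 5.5 acetate buffer with 1.0 M NaCl and 0.05% NP-40.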

[3] = dose 3.300 uM, read-out: HIV-1 Protease % Inhib
[4] = dose 10.000 uM, read-out: HIV-1 Protease % Inhib
[5] = dose 30.000 uM, read-out: HIV-1 Protease % Inhib
[6] = dose 1.100 uM, read-out: HIV-1 Protease % Inhib

SMILES	Ki (HIV-1 protease [1])	inhibition at 3.3 µM (HIV-1 protease [2]; [3])	inhibition at 10 µM (HIV-1 protease [2]; [4])	inhibition at 30 µM (HIV-1 protease [2]; [5])	also measured
O=c1oc2c(c(O)c1C(c1ccccc1)C1CC1)CCCCC2 (single isomer, unassigned) [Example 230, (R or S)-3-(Cyclopropylphenylmethyl)-6,7,8,9-tetrahydro-4-hydroxy-cyclohepta[b]pyran-2(5H)-one]	264 nM and 280 nM				
O=c1oc2c(c(O)c1C(c1ccccc1)C1CC1)CCCCC2 (single isomer, unassigned) [Example 231, (R or S)-3-(Cyclopropylphenylmethyl)-6,7,8,9-tetrahydro-4-hydroxy-cyclohepta[b]pyran-2(5H)-one]	109 nM and 126 nM				
CCCC1CCCCCc2c1oc(=O)c([C@@H](c1ccccc1)C1CC1)c2O (single isomer, unassigned) [Example 233, 3-(R)-(Cyclopropylphenylmethyl)4-hydroxy-10-(R or S)-propyl-5,6,7,8,9,10-hexahydro-cycloocta[b]pyran-2-one]	147 nM and 180 nM and 302 nM				
CCCC1CCCCCc2c1oc(=O)c([C@@H](c1ccccc1)C1CC1)c2O (single isomer, unassigned) [Example 234, 3-(R)-(Cyclopropylphenylmethyl)4-hydroxy-10-(R or S)-propyl-5,6,7,8,9,10-hexahydro-cycloocta[b]pyran-2-one]	12.8 nM and 13 nM and 18.8 nM				
CCCC1CCCCCc2c1oc(=O)c([C@H](c1ccccc1)C1CC1)c2O (single isomer, unassigned) [Example 236, 3-(S)-(Cyclopropylphenylmethyl)-4-hydroxy-10-(R or S)-propyl-5,6,7,8,9,10-hexahydro-cycloocta[b]pyran-2-one]	10 nM and 8 nM				
CCCC1CCCCCc2c1oc(=O)c([C@H](c1ccccc1)C1CC1)c2O (single isomer, unassigned) [Example 237, 3-(S)-(Cyclopropylphenylmethyl)-4-hydroxy-10-(R or S)-propyl-5,6,7,8,9,10-hexahydro-cycloocta[b]pyran-2-one]	60 nM and 117 nM				
O=c1oc2c(c(O)c1[C@@H](c1ccccc1)C1CC1)CCCCCC2 [Example 228]	34.8 nM				
O=c1oc2c(c(O)c1[C@H](c1cccc(NS(=O)(=O)c3ccc(Cl)cc3)c1)C1CC1)CCCCCC2 [Example 250, (-)-4-Chloro-N-[3-[cyclopropyl(5,6,7,8,9,10-hexahydro-4-hydroxy-2-oxo-2H-cycloocta[b]pyran-3-yl)methyl]phenyl]-benzenesulfonamide]	1.23 nM				
O=c1oc2c(c(O)c1[C@@H](c1cccc(NS(=O)(=O)c3ccc(Cl)cc3)c1)C1CC1)CCCCCC2 [Example 251, (+)-4-Chloro-N-[3-[cyclopropyl(5,6,7,8,9,10-hexahydro-4-hydroxy-2-oxo-2H-cycloocta[b]pyran-3-yl)methyl]phenyl]-benzenesulfonamide]	1.25 nM				
N#Cc1ccc(S(=O)(=O)Nc2cccc([C@@H](c3c(O)c4c(oc3=O)CCCCCC4)C3CC3)c2)cc1 [Example 255, (-)-4-Cyano-N-[3-[cyclopropyl(5,6,7,8,9, 10-hexahydro-4-hydroxy-2-oxo-2H-cycloocta[b]pyran-3-yl)methyl]phenyl]-benzenesulfonamide]	0.62 nM				
O=c1oc2c(c(O)c1[C@H](c1cccc(NS(=O)(=O)/C=C/c3ccccc3)c1)C1CC1)CCCCCC2 [Example 257, (-)-N-[3-[Cyclopropyl(5,6,7,8,9,10-hexahydro4-hydroxy-2-oxo-2H cycloocta[b]pyran-3-yl)methyl]phenyl]-2-phenyl-[(E)]-ethenesulfonamide]	3 nM				
O=c1oc2c(c(O)c1[C@H](c1cccc(NS(=O)(=O)c3ccccc3)c1)C1CC1)CCCCCC2 [Example 258, (-)-N-[3-[Cyclopropyl(5,6,7,8,9,10-hexahydro4-hydroxy-2-oxo-2H-cycloocta[b]pyran-3-yl)methyl]phenyl]-benzenesulfonamide]	7.6 nM				
N#Cc1ccc(S(=O)(=O)Nc2cccc([C@H](c3c(O)c4c(oc3=O)CCCCCC4)C3CC3)c2)cc1 [Example 259, (+)4-Cyano-N-[3-[cyclopropyl(5,6,7,8,9,10-hexahydro4-hydroxy-2-oxo-2H-cycloocta[b]pyran-3-yl)methyl]phenyl]-benzenesulfonamide]	0.71 nM				
O=c1oc2c(c(O)c1[C@@H](c1cccc(NS(=O)(=O)/C=C/c3ccccc3)c1)C1CC1)CCCCCC2 [Example 261, (+)-N-[3-[Cyclopropyl(5,6,7,8,9,10-hexahydro-4-hydroxy-2-oxo-2H-cycloocta[b]pyran-3-yl)methyl]phenyl]-2-phenyl-[(E)]-ethenesulfonamide]	3.1 nM				
O=c1oc2c(c(O)c1[C@@H](c1cccc(NS(=O)(=O)c3ccccc3)c1)C1CC1)CCCCCC2 [Example 401, N-[3-[Cyclopropyl(5,6,7,8,9,10-hexahydro-4-hydroxy-2-oxo-2H-cycloocta[b]pyran-3-yl)methyl]phenyl]-(R)-benzenesulfonamide]	2.3 nM				
N#Cc1ccc(S(=O)(=O)Nc2ccc(C(c3c(O)c4c(oc3=O)CCCCCC4)C3CC3)cc2)cc1 (stereo not shown) [Example 472, Benzenesulfonamide, 4-cyano-N-[4-[cyclopropyl (5,6,7,8,9,10-hexahydro-4-hydroxy-2-oxo-2H-cycloocta [b]pyran-3-yl)methyl]phenyl]-]		15.5%	82.2%	110%	
O=c1oc2c(c(O)c1C(c1ccc(NS(=O)(=O)c3ccc(Cl)cc3)cc1)C1CC1)CCCCCC2 (stereo not shown) [Example 473, Benzenesulfonamide, 4-chloro-N-[4-[cyclopropyl(5,6,7,8,9,10-hexahydro-4-hydroxy-2-oxo-2H-cycloocta[b]pyran-3-yl)methyl]phenyl]-]		14.4%	73.6%	86.8%	
O=c1oc2c(c(O)c1C(c1ccc(NS(=O)(=O)c3ccc(F)cc3)cc1)C1CC1)CCCCCC2 (stereo not shown) [Example 474, Benzenesulfonamide, 4-fluoro-N-[4-[cycloptopyl(5,6,7,8,9,10-hexahydro-4-hydroxy-2-oxo-2H-cycloocta[b]pyran-3-yl)methyl]phenyl]-]		11.4%	40.4%	57.2%	
O=c1oc2c(c(O)c1C(c1ccc(NS(=O)(=O)c3cccc([N+](=O)[O-])c3)cc1)C1CC1)CCCCCC2 (stereo not shown) [Example 475, Benzenesulfonamide, 3-nitro-N-[4-[cyclopropyl (5,6,7,8,9,10-hexahydro-4-hydroxy-2-oxo-2H-cycloocta[b]pyran-3-yl)methyl]phenyl]-]		84.1%	103%	110%	inhibition at 0.37 µM (HIV-1 protease [2]; dose 0.370 uM, read-out: HIV-1 Protease % Inhib): 11.8%; inhibition at 1.1 µM (HIV-1 protease [2]; [6]): 27.9%
Cn1cnc(S(=O)(=O)Nc2ccc(C(c3c(O)c4c(oc3=O)CCCCCC4)C3CC3)cc2)c1 (stereo not shown) [Example 476, N-[4-[Cyclopropyl (5,6,7,8,9,10-hexahydro-4-hydroxy-2-oxo-2H-cycloocta[b]pyran-3-yl)methyl]phenyl]-1-methyl-1H-imidazole-4-sulfonamide]		53.1%	83%	83.1%	inhibition at 1.1 µM (HIV-1 protease [2]; [6]): 19.5%
CC(C)(C)OC(=O)NCc1ccc(C(c2c(O)c3c(oc2=O)CCCCCC3)C2CC2)o1 (stereo not drawn) [Example 480, 3-(α-Cyclopropyl(5-(N-carbo-t-butoxy)aminomethyl)furfur-2-yl)-4-hydroxy-5,6,7,8,9,10-hexahydrocycloocata[b]pyran-2-one]		19.2%	45.5%	78.2%	
O=c1oc2c(c(O)c1C(c1ccccc1)c1ccccc1)CCCCCC2 [Example 481, 3-(Diphenylmethyl)-5,6,7,8,9,10-hexahydro-4-hydroxy-2H-cycloocta[b]pyran-2-one]					inhibition at 0.37 µM (HIV-1 protease [2]; read-out: HIV-1 Protease % Inhib, dose 0.370 uM): 118%; inhibition at 1.1 µM (HIV-1 protease [2]; read-out: HIV-1 Protease % Inhib, dose 1.100 uM): 51.2%; inhibition at 3.3 µM (HIV-1 protease [2]; read-out: HIV-1 Protease % Inhib, dose 3.300 uM): 85.3%; inhibition at 10 µM (HIV-1 protease [2]; read-out: HIV-1 Protease % Inhib, dose 10.000 uM): 98%; inhibition at 30 µM (HIV-1 protease [2]; read-out: HIV-1 Protease % Inhib, dose 30.000 uM): 107%
O=c1oc2c(c(O)c1C(Cc1ccccc1)Cc1ccccc1)CCCCC2 [Example 482, 3-(1,3-Diphenyl-2-propyl)-5,6,7,8,9-pentahydro-4-hydroxy-2H-cyclohepta[b]pyran-2-one]		20%	63.2%	92.6%	
Nc1cc(N)cc(C(c2c(O)c3c(oc2=O)CCCCCC3)C2CC2)c1 (stereo not shown) [Example 484, 3-[Cyclopropyl-(3,5-diamino-phenyl)-methyl]-4-hydroxy-5,6,7,8,9,10-hexahydro-cycloocta[b]pyran-2-one]		17.7%	37.2%	51.6%	
O=c1oc2c(c(O)c1C(c1cc(NS(=O)(=O)c3cccc4cccnc34)cc(NS(=O)(=O)c3cccc4cccnc34)c1)C1CC1)CCCCCC2 (stereo not shown) [Example 485, N-[3-[Cyclopropyl-(4-hydroxy-2-oxo-5,6,7,8,9,10-hexahydro-2H-cycloocta[b]pyran-3-yl)-methyl]-5-8-quinolinesulfonylamino-phenyl]-8-quinolinesulfonamide]			13.1%	54.2%	
